ChEMBL document CHEMBL1201862, “PubChem BioAssay data set” (2004)
Activity calls are given as the source filed them.

Legend:
[1] = target: Dual specificity tyrosine-phosphorylation-regulated kinase 1A (Rattus norvegicus, UniProt Q63470); format: biochemical, Homo sapiens
[2] = Luminescence Cell-Based Dose Confirmation HTS to Identify Activators of 5'UTR Stem-Loop Driven Alpha-Synuclein mRNA Translation in H4 Neuroglioblastoma Cells. [Related pubchem assays: 1829 (Project Summary), 1814 (Primary HTS)]; format: functional
[3] = target: Dual specificity protein kinase CLK1 (Homo sapiens, UniProt P49759); assay: inhibition of human CLK1 activity – biochemical, cherry-picked samples, selectivity assay for Dyrk1A inhibitor project, dose response (AID 588811)
Dual specificity protein kinase CLK1, sequence (P49759 whole entry): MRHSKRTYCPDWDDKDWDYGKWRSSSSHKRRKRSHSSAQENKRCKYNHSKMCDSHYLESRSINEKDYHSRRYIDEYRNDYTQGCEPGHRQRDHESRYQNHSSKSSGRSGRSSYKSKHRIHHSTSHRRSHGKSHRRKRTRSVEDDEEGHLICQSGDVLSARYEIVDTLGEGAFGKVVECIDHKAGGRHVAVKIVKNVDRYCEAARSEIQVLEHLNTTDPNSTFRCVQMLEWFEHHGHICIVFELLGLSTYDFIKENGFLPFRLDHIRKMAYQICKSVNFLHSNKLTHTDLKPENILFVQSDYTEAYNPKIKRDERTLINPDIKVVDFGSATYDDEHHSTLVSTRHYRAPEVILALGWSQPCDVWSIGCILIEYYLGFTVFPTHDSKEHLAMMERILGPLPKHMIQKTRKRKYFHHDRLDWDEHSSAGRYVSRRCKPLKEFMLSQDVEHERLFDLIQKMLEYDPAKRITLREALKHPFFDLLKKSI

[4] = Luminescence Cell-Based Dose Response HTS to Identify Activators of Luciferase Translation or Activity in H4 […] Cells. [Related pubchem assays: 1829 (Project Summary), 1814 (Primary HTS)]; format: functional
H4 = assay: Luminescence Cell-Based Dose Response HTS to Identify Activators of 5'UTR Stem-Loop Driven Prion Protein mRNA Translation in H4 Neuroglioblastoma Cells. [Related pubchem assays: 1829 (Project Summary), 1814 (Primary HTS)]; format: functional; conditions: Homo sapiens
[5] = target: FAD-linked sulfhydryl oxidase ALR (Homo sapiens, UniProt P55789); assay: ALR-catalysed DTT oxidation blockers – biochemical, H2O2 detection, luminescence, cherry-pick, dose response (AID 493248)
FAD-linked sulfhydryl oxidase ALR, sequence (P55789 whole entry): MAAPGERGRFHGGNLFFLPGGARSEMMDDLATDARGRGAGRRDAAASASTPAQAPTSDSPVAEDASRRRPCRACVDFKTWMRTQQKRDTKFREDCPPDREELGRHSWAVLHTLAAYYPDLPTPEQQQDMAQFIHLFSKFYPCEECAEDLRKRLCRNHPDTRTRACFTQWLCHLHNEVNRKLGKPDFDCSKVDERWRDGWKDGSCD

[6] = target: T1, Sentrin-specific protease 7 (Homo sapiens, UniProt Q9BQF6); format: functional;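 also: Luminescence-based dose-response confirmation of ultra-high-throughput screening hits, measuring inhibition of SENP7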
T1 sequence (Q9BQF6 whole entry): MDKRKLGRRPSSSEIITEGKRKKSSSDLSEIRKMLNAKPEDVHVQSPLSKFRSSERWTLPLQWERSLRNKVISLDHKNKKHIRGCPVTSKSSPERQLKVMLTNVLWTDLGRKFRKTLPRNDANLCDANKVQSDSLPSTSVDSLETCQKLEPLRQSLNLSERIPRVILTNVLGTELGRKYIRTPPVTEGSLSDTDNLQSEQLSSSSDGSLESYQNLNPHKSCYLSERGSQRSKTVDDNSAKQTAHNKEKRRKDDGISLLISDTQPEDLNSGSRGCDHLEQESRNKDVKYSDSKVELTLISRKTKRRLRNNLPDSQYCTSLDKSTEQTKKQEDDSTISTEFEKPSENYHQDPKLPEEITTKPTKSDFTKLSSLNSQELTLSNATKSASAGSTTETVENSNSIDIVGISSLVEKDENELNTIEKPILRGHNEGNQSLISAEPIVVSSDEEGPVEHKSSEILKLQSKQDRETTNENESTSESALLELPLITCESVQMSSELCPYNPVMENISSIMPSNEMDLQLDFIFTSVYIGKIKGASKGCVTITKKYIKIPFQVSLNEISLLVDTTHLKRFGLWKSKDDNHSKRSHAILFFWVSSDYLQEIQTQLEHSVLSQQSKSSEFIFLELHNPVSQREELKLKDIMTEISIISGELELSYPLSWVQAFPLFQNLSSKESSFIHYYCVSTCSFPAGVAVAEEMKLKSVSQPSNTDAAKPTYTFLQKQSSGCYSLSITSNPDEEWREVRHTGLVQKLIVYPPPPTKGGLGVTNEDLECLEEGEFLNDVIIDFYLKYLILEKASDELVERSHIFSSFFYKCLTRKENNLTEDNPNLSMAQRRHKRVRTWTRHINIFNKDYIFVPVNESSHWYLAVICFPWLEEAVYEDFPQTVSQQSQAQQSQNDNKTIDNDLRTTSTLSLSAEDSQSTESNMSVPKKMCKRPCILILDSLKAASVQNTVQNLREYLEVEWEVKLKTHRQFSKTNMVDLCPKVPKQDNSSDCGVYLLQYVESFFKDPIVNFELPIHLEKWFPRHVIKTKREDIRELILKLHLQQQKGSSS

A-375 [7] = assay: MITF: Counter assay: A375 proliferation Measured in Cell-Based System Using Plate Reader - 2084-03_Inhibitor_Dose_DryPowder_Activity. [Related pubchem assays (depositor defined):AID488944]; format: functional; conditions: Homo sapiens
[8] = target: T2, Sentrin-specific protease 8 (Homo sapiens, UniProt Q96LD8); format: functional;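 also: luminescence read-out of SENP8 inhibition, dose-response confirmation following an ultra-high-throughput screen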
T2 sequence (Q96LD8 whole entry): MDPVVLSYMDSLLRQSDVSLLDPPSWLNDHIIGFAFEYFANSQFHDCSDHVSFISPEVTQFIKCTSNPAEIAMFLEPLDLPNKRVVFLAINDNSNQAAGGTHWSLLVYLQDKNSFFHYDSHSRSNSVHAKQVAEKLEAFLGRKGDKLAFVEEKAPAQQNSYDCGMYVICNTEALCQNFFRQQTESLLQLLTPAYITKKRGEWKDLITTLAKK

[9] = target: T3, Sentrin-specific protease 6 (Homo sapiens, UniProt Q9GZR1); format: functional;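 also: Luminescence-based dose-response confirmatory assay of SENP6 inhibition, following up an ultra-high-throughput screen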
T3 sequence (Q9GZR1 whole entry): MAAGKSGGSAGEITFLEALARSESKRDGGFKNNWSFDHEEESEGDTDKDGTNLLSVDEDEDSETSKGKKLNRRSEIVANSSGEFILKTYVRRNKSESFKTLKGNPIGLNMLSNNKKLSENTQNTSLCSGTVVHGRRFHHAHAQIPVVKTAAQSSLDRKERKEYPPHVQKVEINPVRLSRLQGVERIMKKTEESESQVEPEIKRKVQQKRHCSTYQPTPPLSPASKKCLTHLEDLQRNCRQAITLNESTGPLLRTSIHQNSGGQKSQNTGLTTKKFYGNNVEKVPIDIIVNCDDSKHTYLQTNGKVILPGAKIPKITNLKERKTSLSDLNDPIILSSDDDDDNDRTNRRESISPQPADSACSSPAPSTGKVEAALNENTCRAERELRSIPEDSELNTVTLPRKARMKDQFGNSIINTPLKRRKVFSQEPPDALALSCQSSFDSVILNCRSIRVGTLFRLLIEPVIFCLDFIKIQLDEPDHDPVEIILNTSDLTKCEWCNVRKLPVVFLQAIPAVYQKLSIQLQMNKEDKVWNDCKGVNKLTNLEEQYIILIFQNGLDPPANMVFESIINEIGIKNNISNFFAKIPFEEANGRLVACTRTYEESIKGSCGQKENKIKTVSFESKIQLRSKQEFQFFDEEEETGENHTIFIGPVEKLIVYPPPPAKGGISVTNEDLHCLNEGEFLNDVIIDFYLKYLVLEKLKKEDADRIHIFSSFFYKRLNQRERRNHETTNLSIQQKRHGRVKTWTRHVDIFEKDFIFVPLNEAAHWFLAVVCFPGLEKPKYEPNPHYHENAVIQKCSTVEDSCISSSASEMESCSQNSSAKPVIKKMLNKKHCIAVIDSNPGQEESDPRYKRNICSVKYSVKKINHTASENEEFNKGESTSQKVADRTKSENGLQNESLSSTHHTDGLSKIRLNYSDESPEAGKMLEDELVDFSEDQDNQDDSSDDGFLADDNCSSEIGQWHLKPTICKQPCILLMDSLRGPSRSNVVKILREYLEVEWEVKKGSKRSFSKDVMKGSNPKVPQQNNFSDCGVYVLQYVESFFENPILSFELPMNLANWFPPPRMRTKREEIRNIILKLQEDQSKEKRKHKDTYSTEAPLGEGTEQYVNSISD

Caspase-3 = target: T4, Caspase-3 (Homo sapiens, UniProt P42574); format: functional;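 also: Dose-response selectivity test against caspase-3 for candidate inhibitors of sentrin-specific proteases (SENPs)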
T4 sequence (P42574 whole entry): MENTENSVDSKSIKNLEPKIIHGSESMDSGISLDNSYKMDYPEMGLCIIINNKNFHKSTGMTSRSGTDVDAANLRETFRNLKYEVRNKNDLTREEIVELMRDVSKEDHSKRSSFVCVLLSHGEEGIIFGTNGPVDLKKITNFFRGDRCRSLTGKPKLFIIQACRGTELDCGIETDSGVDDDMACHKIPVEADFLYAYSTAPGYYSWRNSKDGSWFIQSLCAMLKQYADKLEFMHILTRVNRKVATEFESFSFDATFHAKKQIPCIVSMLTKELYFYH

A-375 [10] = assay: proliferation inhibition in MITF-low A375 cells – cell-based, cherry-pick samples, set 2, counter-screen for MITF modulator project, dose response (AID 540335); format: functional; conditions: Homo sapiens
NIH3T3 = assay: mammalian cell viability counter-check – Alamar Blue, fluconazole, dry powder, cytotoxicity control for antifungal drug resistance project, dose response (AID 488809); format: functional, cell-based; conditions: Mus musculus
[11] = target: Heat shock protein HSP 90-alpha (Homo sapiens, UniProt P07900); format: functional, organism-based
Large T antigen = Large T antigen (Simian virus 40, UniProt P03070); format: functional, Betapolyomavirus macacae;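 also: Confirmatory-stage PubChem screen for compounds that inhibit SV40 T antigen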
Large T antigen, sequence (P03070 whole entry): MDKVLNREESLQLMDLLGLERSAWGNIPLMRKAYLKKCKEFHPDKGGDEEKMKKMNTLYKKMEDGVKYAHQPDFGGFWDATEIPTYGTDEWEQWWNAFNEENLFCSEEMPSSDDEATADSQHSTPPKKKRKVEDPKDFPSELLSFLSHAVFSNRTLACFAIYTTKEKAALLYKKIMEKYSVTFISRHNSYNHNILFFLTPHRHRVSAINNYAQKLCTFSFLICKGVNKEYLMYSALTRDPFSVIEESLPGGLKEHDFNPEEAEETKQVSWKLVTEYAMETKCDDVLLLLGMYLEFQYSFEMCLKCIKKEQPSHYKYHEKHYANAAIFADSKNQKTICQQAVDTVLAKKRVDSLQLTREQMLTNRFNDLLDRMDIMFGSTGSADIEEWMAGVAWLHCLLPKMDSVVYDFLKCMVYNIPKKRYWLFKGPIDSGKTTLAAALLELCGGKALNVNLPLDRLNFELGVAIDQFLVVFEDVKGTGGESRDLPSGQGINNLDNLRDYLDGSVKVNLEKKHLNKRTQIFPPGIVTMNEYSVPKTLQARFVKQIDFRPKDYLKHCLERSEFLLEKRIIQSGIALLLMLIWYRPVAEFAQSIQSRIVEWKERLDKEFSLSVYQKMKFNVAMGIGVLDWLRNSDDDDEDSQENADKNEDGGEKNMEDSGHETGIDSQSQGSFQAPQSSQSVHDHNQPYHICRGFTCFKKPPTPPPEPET

Escherichia coli [12] = assay: microbe, parasite or virus in culture
Escherichia coli [13] = assay: microbe, parasite or virus in culture; remark: listed apart in the source

CC(=O)Nc1ccc(SCc2ncc(-c3ccccc3)o2)cc1
active: AC50 [1] 4.26 µM | EC50 [2] 34.3 µM | AC50 [3] 0.429 µM | EC50 [4] 0.237 µM | EC50 (H4) 11.2 µM | AC50 [5] 0.44 µM

CCOc1ccc2nc(NC(=O)Cc3cccs3)sc2c1
active: IC50 [6] 7.38 µM | AC50 (A-375 [7]) > 35 µM | IC50 [8] 16.2 µM | IC50 [9] 33.2 µM | IC50 (Caspase-3) 22.9 µM | AC50 (A-375 [10]) > 35 µM

O=C(Cn1nc(-c2ccccc2)c2ccccc21)NCc1ccc(Cl)cc1
active: AC50 (NIH3T3) 131 µM

[O-][n+]1ccccc1S [PYRITHIONE]
active: AC50 [11] 1.01 µM | IC50 (Large T antigen) 30.3 µM | AC50 (Escherichia coli [12]) 9.06 µM | AC50 (Escherichia coli [13]) 9.47 µM | AC50 [5] 0.432 µM
